The values that follow come from ChEMBL document CHEMBL1201862, “PubChem BioAssay data set” (2004).

SMILES strings stand for the structures. “And” between values parts separate entries of the source, which are not always exact repeats. Equal values may be shown once.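 The compound was tested at five concentrations on cells cultured in 96-well plates, with a 48-hour exposure period. GI50: concentration for 50% inhibition of growth.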 The source made the active and inactive calls. Rule as the data show it: active = GI50 up to about 1.1 µM and inactive = higher.

Assay in all cases: inhibition of tumour cell growth, NCI panel, 48 h
Experiment [1] has as its system HT-29.
Experiment [2] concerns COLO 205.
Experiment [3] concerns OVCAR-5.
Experiment [4] deals with Hs-578T.
Experiment [5] concerns DU-145.
The subject of experiment [6] is T47D.
Experiment [7] concerns U-251.
Experiment [8] relates to SK-OV-3.
Experiment [9] relates to SK-MEL-2.
Experiment [10] has as its system HOP-62.
Experiment [11] concerns A498.
Experiment [12] deals with HCC 2998.
Experiment [13] concerns MCF7.
Experiment [14] relates to NCI/ADR-RES.
For experiment [15], the system named is Malme-3M.
Experiment [16] has as its system SK-MEL-28.
Experiment [17] deals with M14.
Experiment [18] has as its system HOP-92.
In experiment [19] the test system is SR.

For the molecule `CCN(CC)CCCNc1nncc2cc3c([nH]c4ccccc43)c(C)c12`, the GI50 was 4.03 µM (inactive) in experiment [1]; 8.75 µM (inactive) in experiment [2]; 14.4 µM (inactive) in experiment [3]; 14.1 µM (inactive) in experiment [4]; 12 µM (inactive) in [5]; 13.3 µM (inactive) in experiment [6]. For the same molecule, the GI50 is 6.04 µM (inactive) in experiment [7]; 15.2 µM (inactive) in [8]; 36.4 µM (inactive) in [9]; 12.9 µM (inactive) in [10]; 15.4 µM (inactive) in experiment [11]; 11 µM (inactive) in [12]. In addition, the GI50 is 13.6 µM (inactive) in experiment [13]; 48.9 µM (inactive) in [14]; 17.6 µM (inactive) in experiment [15]; 17.7 µM (inactive) in experiment [16]; 20.5 µM (inactive) in experiment [17].

`O=C(O)C1C2C=CC(O2)C1C(=O)NCc1ccncc1` (centres undefined): the GI50 in experiment [1], in experiment [2], in experiment [3], in experiment [4], in [5] and in [6] was > 100 µM (inactive) each time. Further, the GI50 in [7], in experiment [8], in [9], in [10], in [11] and in experiment [18] was > 100 µM (inactive) each time. Further, the GI50 in experiment [13], in experiment [19], in experiment [15], in [16] and in [17] was > 100 µM (inactive) each time.

Consider `COC(=O)c1ccc(-c2nc(C#N)c(N)o2)cc1`, for which the GI50 in experiment [1] is > 100 µM (inactive); in [2], > 100 µM (inactive); in [3] it was > 100 µM (inactive); in experiment [4], 32.2 µM (inactive); in experiment [5] it was > 100 µM (inactive); in experiment [6], > 100 µM (inactive). Moreover, the GI50 in experiment [7] was 31.6 µM (inactive); in experiment [8], > 100 µM (inactive); in [9] it was > 100 µM (inactive); in [10], 67.9 µM (inactive); in experiment [13], > 100 µM (inactive); in [19], > 100 µM (inactive). For the same molecule, the GI50 in experiment [15], in experiment [16] and in experiment [17] was > 100 µM (inactive) each time.

For the molecule `O=C1C(Cl)C2(CC(/C=C/c3ccccc3)=NN2c2cccc(S(=O)(=O)O)c2)N1c1nc2ccccc2s1` (centres undefined), the GI50 was 19.4 µM (inactive) in [1]; 19.2 µM (inactive) in [2]; 18.1 µM (inactive) in experiment [3]; 30.9 µM (inactive) in experiment [4]; 11 µM (inactive) in experiment [6]; 14.7 µM (inactive) in experiment [7]. Besides, the GI50 in experiment [9] was 17.3 µM (inactive); in experiment [11] it was 19.3 µM (inactive); in experiment [12] it was 14.4 µM (inactive); in experiment [18] it was 11.7 µM (inactive); in experiment [13], 16.7 µM (inactive); in experiment [19] it was 13.4 µM (inactive). Also, the GI50 is 28.2 µM (inactive) in experiment [14], 17.3 µM (inactive) in experiment [15], 44.8 µM (inactive) in experiment [16] and 17.2 µM (inactive) in experiment [17].

With `O=c1[nH]c2cc([N+](=O)[O-])c(N/N=C/c3ccc(Cl)cc3Cl)c([N+](=O)[O-])c2[nH]1`, the GI50 in experiment [1] is > 100 µM (inactive); in [2] it was > 100 µM (inactive); in [3], 70 µM (inactive); in experiment [4], 90.2 µM (inactive); in experiment [5], 51.9 µM (inactive); in experiment [6], > 100 µM (inactive). Also, the GI50 in experiment [7] was 34.4 µM (inactive); in experiment [8], 30.1 µM (inactive); in experiment [9] it was > 100 µM (inactive); in [10], 59.6 µM (inactive); in experiment [11], 14.3 µM (inactive); in [18], 32.9 µM (inactive). Besides, the GI50 in experiment [13] is 42.6 µM (inactive); in experiment [14], 15.5 µM (inactive); in experiment [15] it was 31.2 µM (inactive); in [16] it was > 100 µM (inactive); in [17], > 100 µM (inactive).

For `C=C(CC(=O)Nc1ccc(C(=O)OC)o1)C(=O)OC`, the GI50 in experiment [1] was 26.5 µM (inactive); in [2] it was 19.6 µM (inactive); in experiment [3] it was 17.1 µM (inactive); in experiment [4], 53.1 µM (inactive); in experiment [5] it was 31.9 µM (inactive); in experiment [6], 23.2 µM (inactive). Further, the GI50 is 35 µM (inactive) in [7]; 28.7 µM (inactive) in experiment [8]; 20.7 µM (inactive) in [9]; 73.3 µM (inactive) in experiment [10]; 42.8 µM (inactive) in [11]; 29.4 µM (inactive) in experiment [18]. Moreover, the GI50 in [13] is 17.9 µM (inactive); in [14] it was 41.3 µM (inactive); in [15], 19.7 µM (inactive); in experiment [16], 23 µM (inactive); in experiment [17], 19.1 µM (inactive).

In the case of `CC1OC(OC2C(OC(=O)[C@]34CCC(C)(C)C[C@H]3C3=CC[C@@H]5[C@@]6(C)CC[C@H](OC7OC(CO)C(O)C(O)C7OC7OC(CO)C(O)C(O)C7O)C(C)(C)[C@@H]6CC[C@@]5(C)[C@]3(C)CC4)OCC(O)C2O)C(O)C(O)C1OC1OCC(O)C(OC2OCC(O)C(O)C2O)C1O` (some centres undefined), the GI50 in [1] was 3.02 µM (inactive) and 3.33 µM (inactive); in [2], 1.78 µM (inactive) and 2.43 µM (inactive); in experiment [3] it was 4.86 µM (inactive) and 5.37 µM (inactive); in experiment [4] it was 13.5 µM (inactive) and 12.9 µM (inactive); in experiment [5], 8.11 µM (inactive) and 7.05 µM (inactive); in [6], 4.13 µM (inactive) and 6.3 µM (inactive). The GI50 in experiment [7] was 6.76 µM (inactive) and 9.84 µM (inactive); in [8], 12.6 µM (inactive) and 13.1 µM (inactive); in experiment [9] it was 3.01 µM (inactive) and 2.9 µM (inactive); in experiment [11], 2.17 µM (inactive) and 2.02 µM (inactive); in experiment [12] it was 2 µM (inactive) and 1.76 µM (inactive); in [18] it was 1.92 µM (inactive) and 2.15 µM (inactive). Further, the GI50 is 2.19 µM (inactive) and 3.06 µM (inactive) in experiment [19]; 5.81 µM (inactive) and 3.99 µM (inactive) in [14]; 2.49 µM (inactive) and 2.52 µM (inactive) in experiment [15]; 2.09 µM (inactive) and 2.18 µM (inactive) in experiment [16]; 1.97 µM (inactive) and 1.79 µM (inactive) in experiment [17].

On to `Oc1cc2c3c(c1)c1cc4c(cc1c[n+]3CC2)OCO4`, for which the GI50 was 4.6 µM (inactive) in experiment [1]; 3.73 µM (inactive) in experiment [2]; 45.6 µM (inactive) in [3]; 0.906 µM (active) in experiment [4]; 3.23 µM (inactive) in experiment [5]; 3.47 µM (inactive) in experiment [6]. Also, the GI50 in experiment [7] is 0.971 µM (active); in experiment [8], 16.1 µM (inactive); in experiment [9], 9.68 µM (inactive); in experiment [10], 8.45 µM (inactive); in experiment [11], 35.4 µM (inactive); in [12], 4.4 µM (inactive). Moreover, the GI50 in experiment [18] is 15.2 µM (inactive); in experiment [13] it was 7.69 µM (inactive); in experiment [19] it was 0.671 µM (active); in [15], 1.16 µM (inactive); in experiment [16] it was 7.82 µM (inactive); in experiment [17], 32.1 µM (inactive).
